# From patent US8927695B2, “Protein-based assays for screening of the IgE-receptor interaction” (The Board of Trustees of the Leland Stanford Junior …, priority 2010, dated 2015)
# T1: FcεRIα (Homo sapiens, UniProt P12319)
# T1 sequence (P12319 26-257): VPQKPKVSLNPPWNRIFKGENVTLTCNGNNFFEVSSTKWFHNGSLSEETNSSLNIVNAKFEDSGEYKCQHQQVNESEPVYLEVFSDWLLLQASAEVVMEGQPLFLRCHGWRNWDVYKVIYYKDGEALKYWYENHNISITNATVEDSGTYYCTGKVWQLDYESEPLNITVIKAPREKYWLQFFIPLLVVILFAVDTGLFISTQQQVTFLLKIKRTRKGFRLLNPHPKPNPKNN
# Assays:
# transthyretin (TTR) = transthyretin (TTR) (Homo sapiens, UniProt P02766); conditions: in vitro; cited from earlier work
# [1] = biological target: mutant hormone / mutant receptor (hGH/hGHbp) (Homo sapiens, UniProt P01241+P10912, T201G/W122G); conditions: at a concentration of 100 μM; cited from earlier work
# LFA-1/ICAM-1 interaction = LFA-1/ICAM-1 interaction (Homo sapiens, UniProt P05107+P20701); conditions: solid-phase binding assay stated for LFA703; cited from earlier work
# inflammatory response = conditions: mouse model of acute inflammation; cited from earlier work
# [2] = biological target: T2, 488-labeled 367C IgE-Fc bound to FcεRIα (Homo sapiens, UniProt P01854+P12319, K248C); assay: fluorescence assay in competitive inhibitor format; assay type: binding
# T2 construct: starts at amino acid 1 and ends at amino acid 176 of said FcεRIα, using the numbering −25 to 232; made in house; host or cells: IgE-Fc: insect cells (Trichoplusia ni)
# Experimental: Fluorescence Measurement. Samples were monitored by fluorescence using a Synergy 4 Fluorometer (BioTek) in black 96-well Costar fluorescence plates (Corning). Samples were prepared manually by mixing Alexa-488-labelled 367C IgE-Fc in 0.1% Tween-20 and 100 nM BSA, with buffered 50 mM Tris and 50 mM NaCl, pH 8. Fluorescence was measured using an excitation wavelength of 488 nm and emission was monitored at 520 nm. The read-type for typical measurements was Endpoint. All measurements were recorded in duplicate.
# FcεRIα = biological target: T1, FcεRIα; conditions: natural IgE-receptor interaction; read-out: affinity of the natural receptor interaction; cited from earlier work
Molecule,inhibition of TTR amyloid fibril formation (transthyretin (TTR)),other results
O=C(O)Cc1ccccc1Nc1c(Cl)cccc1Cl [diclofenac],strongly inhibited,–
Clc1ccc2nc(C(Cl)(Cl)Cl)[nH]c2c1 [5-Chloro-2-trichloromethyl benzimidazole],–,increase in binding affinity of the mutant hormone to the mutant receptor [1]: more than 1000 fold
CC[C@H](C)C(=O)O[C@H]1C[C@@H](C)C=C2C=C[C@H](C)[C@H](CC[C@H]3C[C@@H](O)CC(=O)N3Cc3ccc4c(CO)c(OC)ccc4c3)[C@H]21 [LFA703],–,IC50 (LFA-1/ICAM-1 interaction): 200 nM; inflammatory response (inflammatory response): suppress the inflammatory response
"O=C(O)c1ccccc1Nc1ccccc1C(F)(F)F [o-FLU, ortho-trifluoromethylphenyl anthranilic acid]",potent inhibitors,–
"O=C(O)c1cccc2c1Oc1c(C(=O)O)cccc1N2c1cccc(C(F)(F)F)c1 [PHENOX, N-(meta-trifluoromethylphenyl)-phenoxazine-4,6-dicarboxylic acid]",potent inhibitors,–
Oc1ccc(C=Cc2cc(O)cc(O)c2)cc1 [resveratrol],strongly inhibited,–
O=C(O)c1ccccc1Nc1cccc(C(F)(F)F)c1 [flufenamic acid],potently inhibit,–
CC(C(=O)O)c1ccc(-c2ccccc2)c(F)c1 (stereo not drawn) [flurbiprofen],strongly inhibited,–
"unlabeled IgE-Fc: unlabeled wild type human IgE-Fc (Cε3-Cε4) used as competitor (protein, listed as Homo sapiens, PEPTIDE (1)..(223) Wildtype IgE-Fc (C3-C4)) ADPCADSNPRGVSAYLSRPSPFDLFIRKSPTITCLVVDLAPSKGTVNLTWSRASGKPVNHSTRKEEKQRNGTLTVTSTLPVGTRDWIEGETYQCRVTHPHLPRALMRSTTKTSGPRAAPEVYAFATPEWPGSRDKRTLACLIQNFMPEDISVQWLHNEVQLPDARHSTTQPRKTKGSGFFVFSRLEVTRAEWEQKDEFICRAVHEAASPSQTVQRAVSVNPGK",–,direct effect on fluorescence of the dye-labeled IgE-Fc ([2]; control in the absence of FcεRIα): no significant effect; fluorescence recovery / competition of receptor binding ([2]; in the presence of FcεRIα): completely competed; Kd (FcεRIα): ~1 nM
